Values of other authors in patent US20050181032A1, “Metastable pharmaceutical compositions” (Acrux DDS Pty Ltd., priority 2002, published 2005).

LogP: 3.91
SMILES: C#C[C@]1(O)CC[C@H]2[C@@H]3CCc4cc(O)ccc4[C@H]3CC[C@@]21C [EE2, Ethinyl Estradiol]
